Series [1] has as its target T1, human MRGPRX2 (Homo sapiens, UniProt Q96LB1).
T1 construct: expressed in transfected cells
T1 sequence (Q96LB1 1-330): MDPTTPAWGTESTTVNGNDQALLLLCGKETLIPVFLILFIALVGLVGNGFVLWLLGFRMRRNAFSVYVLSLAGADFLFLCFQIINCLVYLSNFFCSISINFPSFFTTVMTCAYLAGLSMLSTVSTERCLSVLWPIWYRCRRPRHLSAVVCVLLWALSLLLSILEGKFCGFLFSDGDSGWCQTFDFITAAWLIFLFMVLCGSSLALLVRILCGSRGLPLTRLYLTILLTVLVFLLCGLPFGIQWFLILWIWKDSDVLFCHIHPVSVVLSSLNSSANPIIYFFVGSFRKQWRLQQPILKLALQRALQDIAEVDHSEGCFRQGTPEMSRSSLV
Put plainly: MRGPRX2 activity: IP-One HTRF antagonist assay in CHO cells versus Cortistatin-14. The settings on record: CHO cells stably expressing human MRGPRX2; versus 0.3 uM Cortistatin-14 agonist; IP-1 HTRF. It is filed as cell-based. How it is done: CHO cells stably transfected to express human MRGPRX2 were maintained in an incubator at 37° C. with 5% CO2 and grown in F12 (HAM) media with 10% fetal bovine serum (FBS), 1% Glutamax, 1% penicillin/streptomycin, 800 μg/mL Geneticin (G418), and 300 μg/mL Hygromycin B.
Cells were plated in a 384-well assay plate at 20,000 cells per well in 12 μL of Opti-MEM and kept in an incubator overnight. On the day of the assay, compounds solubilized at 10 mM in DMSO were added as a 10-point curve (30 uM final top concentration with 1:3 serial dilutions) using a Tecan D300E digital dispenser. Agonists were diluted in assay buffer (final concentrations of 5.7 mM Tris-HCl, 43 mM NaCl, 50 mM LiCl, pH=8) and 2 μL of the agonist Cortistatin-14 (CPC Scientific, catalog CORT-002) are added to each well. Final concentrations of agonists were 0.3 μM Cortistatin. Final concentrations of DMSO were kept consistent across the plate. Plates were incubated in the dark for 1 h at 37° C. and then for 1 h at room temperature. IP-1 standards and HTRF detection reagents were added according to the IP-One-Gq Kit purchased from Cisbio (part number 62IPAPEJ) and incubated in the dark for 1 h at room temperature. The plate was read on a Molecular Devices SpectraMax iD5 plate reader. The HTRF ratio was calculated from the raw data and graphed using GraphPad Prism to calculate an IC50 value for each compound.
The activity ranges are denoted as follows: “+++++” denotes antagonist activity <100 nM; “++++” denotes antagonist activity between 100 and 500 nM; “+++” denotes activity between 501 and 1000 nM; “[…]” denotes activity between 1001 and 2500 nM; and “+” denotes activity >2500 nM
In general terms: Time-resolved FRET reads energy transfer from a long-lived donor to a nearby acceptor.

Series [2] has as its system Human LAD2 cells. Put plainly: Mast Cell Beta-Hexosaminidase Release Assay. Conditions: 500 nM Cortistatin-14, read-out: MRGPRX2 Antagonist Activity. The class given is cell-based. How it is done:
Human LAD2 cells (NIH) were maintained in an incubator at 37° C. with 5% CO2 and cultured in StemPro-34 serum-free media (Gibco 10639011) supplemented with 2 mM L-glutamine, 100 U/ml penicillin, […] streptomycin and 100 ng/ml SCF (Invitrogen PEP0860), at a concentration of 2-5×10^5 cells/mL, with hemidepletion every 1-2 weeks.
Cells were transferred to SCF-Free medium at 2.5×10^5 cells/mL and kept in an incubator overnight. On the day of the assay, cells were washed twice in Assay Buffer (final concentrations 10 mM HEPES, 137 mM NaCl, 5.6 mM D-glucose, 2.7 mM KCl, 1 mM MgCl, 1.8 mM CalCl2, 0.4 mM Na2HPO4·7H2O, 0.04% BSA, pH=7.4) and plated in a 96-well v-bottom plate at 20,000 cells per well in 80 μL Assay Buffer. Antagonist compounds solubilized at 10 mM in DMSO were diluted in Assay Buffer to 10× final desired concentrations as a 10-point curve (10 μM final top concentration with 1:3 serial dilutions) and 10 μL added per well. Plates were then incubated for 1 hour at 37° C. Agonists were diluted in Assay Buffer to 10× desired concentrations and 10 μL of the appropriate agonist added to each well. The final concentration of Cortistatin-14 (Tocris 3374) used in antagonist assays was 500 nM. Final concentrations of DMSO were kept consistent across the plate. Plates were then incubated in a warm air oven for 30 minutes at 37° C., followed by centrifugation at 4° C. for 5 minutes at 450×g. 50 μL supernatant from each well was then transferred to a 96-well flat bottom plate containing 100 μL substrate solution per well (3.5 mg/mL p-Nitrophenyl-N-acetyl-β-D-glucosaminide (Sigma 487052) in Citrate Buffer containing a final concentration of 40 mM Citric Acid, 20 mM Na2HPO4·7H2O, pH=4.5). To the cell pellets left in the remaining assay buffer, 150 μL 0.1% Triton-X-100 was then added to each well, resuspended by pipetting up and down, and 50 μL cell lysates transferred to a second 96-well flat bottom plate containing 100 μL substrate solution per well. Plates containing transferred supernatant and cell lysates were then incubated in a warm air oven for 90 minutes at 37° C. After incubation, 50 μL of 400 mM Glycine buffer (pH 10.7) was added into each well and the plate was read on a Molecular Devices SpectraMax iD5 plate reader (absorbance at 405 nm with reference filter at 620 nm). After background subtraction, the percentage degranulation (percent beta-hexosaminidase release) was calculated as 100×(supernatant values)/(supernatant+lysate values), followed by analysis using GraphPad Prism software to calculate an IC50 value for each compound.
The activity ranges are denoted as follows: “+++++” denotes antagonist activity <100 nM; “++++” denotes antagonist activity between 100 and 500 nM; “+++” denotes activity between 501 and 1000 nM; “++” denotes activity between 1001 and 2500 nM; and “+” denotes activity >2500 nM.

Series [3] can be described thus: Mouse Pharmacokinetics Studies (50 mg/kg oral gavage, plasma LC-MS/MS). It is filed as in vivo. Conditions: Male C57BL/6 mice, non-fasted; for AUC(0-t) / Cmax / Tmax: mouse; for Tmax: read-out: PK: Tmax. How it is done: Compounds were formulated in 5% DMSO, 5% Solutol, and 90% PBS without Ca and Mg (pH 7.4) at a concentration of 5 mg/mL. Male C57BL/6 mice (n=3/compound) were administered a 50 mg/kg dose of each compound by oral gavage under a non-fasted condition. Blood samples were collected via the saphenous vein onto K2-EDTA at 0.25, 0.5, 1, 2, 4, 8 and 24 hours after dosing, and plasma was prepared and stored at −80° C. until analysis. Plasma sample preparation for analysis was done by protein precipitation using acetonitrile (including Verapamil as an internal standard) followed by centrifugation. Compound concentrations were determined in extracted plasma using LC-MS/MS relative to a 12-point standard curve covering the 1 to 4000 nM range. Non-compartmental analysis using Phoenix WinNonlin was used to estimate pharmacokinetic parameters including area under the curve, clearance, and half-life. The administered dose was confirmed by analysis of residual dosing material by UPLC-UV relative to a single point calibration sample.

For the molecule `O=C(N[C@@H]1CCC[C@H](Nc2cc(C(F)(F)F)nc3ccc(Cl)cc23)C1)c1cccc2ncsc12` [Example 4-225], the IC50 in series [1] and in series [2] was below 100 nM in each case.

For `O=C(N[C@@H]1CCC[C@H](Nc2cc(C(F)(F)F)nc3ccc(Cl)cc23)C1)N1CC2(CC2)C1` [Example 8-9], the figures for the IC50 in series [1] and in series [2] were below 100 nM and 100 to 500 nM, respectively.

With `CC(=O)Nc1cccc(C(=O)N[C@@H]2CCC[C@H](Nc3cc(C(F)(F)F)nc4ccc(F)cc34)C2)c1` [Example 4-306], the IC50 in series [2] is below 100 nM.

Consider `Cn1cc(C(=O)N[C@@H]2CCC[C@H](Nc3cc(C(F)(F)F)nc4ccc(Cl)cc34)C2)cn1` [Example 4-400], for which the IC50 in series [1] is below 100 nM. In addition, in series [2], the IC50 is below 100 nM. Also, in series [3], the “AUC 0-24” value worked out at 640 µM·h; the AUC(0-t) (as a rule, exposure summed from dosing to a finite time, without extrapolation to infinity) worked out at 640 µM·h; the maximum concentration (Cmax) – broadly, the peak of the concentration-time curve – came to 61 µM; the Tmax (commonly the time at which the peak concentration occurs) is 1.3 h.

For `CS(=O)(=O)Nc1cccc(C(=O)N[C@@H]2CCC[C@H](Nc3cc(C(F)(F)F)nc4ccc(Cl)cc34)C2)c1` (stereo in doubt) [Example 14, N-((1R,3S)-3-((6-chloro-2-(trifluoromethyl)quinolin-4-yl)amino)cyclohexyl)-3-(methylsulfonamido)benzamide], the IC50 in series [1] and in series [2] was below 100 nM throughout.

On to `CC1(F)CN(C(=O)N[C@@H]2CCC[C@H](Nc3cc(C(F)(F)F)nc4ccc(Cl)cc34)C2)C1` [Example 45, N-((1R,3S)-3-((6-chloro-2-(trifluoromethyl)quinolin-4-yl)amino)cyclohexyl)-3-fluoro-3-methylazetidine-1-carboxamide], for which the IC50 in series [2] was in the range of 100 to 500 nM.

Consider `CCS(=O)(=O)Nc1cccc(C(=O)N[C@@H]2CCC[C@H](Nc3cc(C(F)(F)F)nc4ccc(Cl)cc34)C2)c1` [Example 4-241], for which the IC50 in series [2] was below 100 nM.

As for `N#CCn1cc(C(=O)N[C@@H]2CCC[C@H](Nc3cc(C(F)(F)F)nc4ccc(Cl)cc34)C2)c(Cl)n1` [Example 5-3], in series [2], the IC50 was below 100 nM.

Take `O=C(N[C@@H]1CCC[C@H](Nc2cc(C(F)(F)F)nc3ccc(Cl)cc23)C1)c1ccc(F)nc1` [4-411]: in series [2], the IC50 was below 100 nM.

In the case of `Nc1ncc(C(=O)N[C@@H]2CCC[C@H](Nc3cc(C(F)(F)F)nc4ccc(Cl)cc34)C2)cn1` [Example 15, 2-amino-N-[(1R,3S)-3-{[6-chloro-2-(trifluoromethyl)quinolin-4-yl]amino}cyclohexyl]pyrimidine-5-carboxamide], the IC50 in series [2] is below 100 nM. In series [3], the “AUC 0-24” value was determined as 140 µM·h, the AUC(0-t) is 140 µM·h, the Cmax stood at 36 µM and the Tmax is 1 h.

For `Cc1cc(C(=O)N[C@@H]2CCC[C@H](Nc3cc(C(F)(F)F)nc4ccc(Cl)cc34)C2)cn1CCF` [Example 5-2], the IC50 in series [2] was below 100 nM.

In the case of `COc1ccc(C(=O)N[C@@H]2CCC[C@H](Nc3cc(C(F)(F)F)nc4ccc(Cl)cc34)C2)cc1` [Example 1, N-((1R,3S)-3-((6-chloro-2-(trifluoromethyl)quinolin-4-yl)amino)cyclohexyl)-4-methoxybenzamide], the IC50 in series [2] is below 100 nM. Besides, in series [3], the “AUC 0-24” value worked out at 78 µM·h, the AUC(0-t) worked out at 78 µM·h, the highest level (Cmax) was 6.1 µM and the Tmax stood at 8 h.

As to `CC(C)S(=O)(=O)Nc1ccc(F)c(C(=O)N[C@@H]2CCC[C@H](Nc3cc(C(F)(F)F)nc4ccc(F)cc34)C2)c1F` [Example 4-318], the IC50 in series [2] lay within 501 to 1000 nM.

As to `CNc1ccc(C(=O)N[C@@H]2CCC[C@H](Nc3cc(C(F)(F)F)nc4ccc(F)cc34)C2)cc1` [Example 4-303], the IC50 in series [1] and in series [2] was below 100 nM each time.

On to `CCS(=O)(=O)Nc1cccc(C(=O)N[C@@H]2CCC[C@H](Nc3cc(C(F)(F)F)nc4ccc(F)cc34)C2)c1` [Example 4-304], for which the IC50 in series [1] and in series [2] was below 100 nM each time.

Turning to `N#Cc1cccc(C(=O)N[C@@H]2CCC[C@H](Nc3cc(C(F)(F)F)nc4ccccc34)C2)c1` [Example 3-4], in series [2], the IC50 lay within 1000 to 2500 nM. Moreover, in series [3], the “AUC 0-24” value is 230 µM·h, the AUC(0-t) amounted to 230 µM·h, the highest level (Cmax) was 30 µM and the Tmax was 3.3 h.

On to `CC(C)C(=O)N1CCN(C(=O)N[C@@H]2CCC[C@H](Nc3cc(C(F)(F)F)nc4ccc(Cl)cc34)C2)CC1` [Example 44, N-((1R,3S)-3-((6-chloro-2-(trifluoromethyl)quinolin-4-yl)amino)cyclohexyl)-4-isobutyrylpiperazine-1-carboxamide], for which the IC50 in series [2] is below 100 nM.

On to `O=C(N[C@@H]1CCC[C@H](Nc2cc(C(F)(F)F)nc3ccc(Cl)cc23)C1)c1ccc(B(O)O)cc1` [Example 4-430], for which the IC50 in series [1] and in series [2] was below 100 nM in each case.

For the molecule `O=C(N[C@@H]1CCC[C@H](Nc2cc(C(F)(F)F)nc3ccccc23)C1)c1ccc(F)cc1` [Example 1-8], the IC50 in series [2] is above 2500 nM. For the same molecule, in series [3], the “AUC 0-24” value came out at 650 µM·h, the AUC(0-t) came out at 650 µM·h, the Cmax is 48 µM and the Tmax is 8 h.

The values are drawn from patent US12129244B2, “Modulators of Mas-related G-protein receptor X2 and related products and methods” (Escient Pharmaceuticals, Inc., priority 2022, dated 2024).
